# How the values were obtained:
# A549 (KRAS-G12S) pERK = test: Cell-based pERK dose response study, A549; conditions: Homo sapiens; A549; 12-point dose; 2 hours
# Method: Materials and Methods: A549 or A375 cells were seeded in 6-well plates at an appropriate seeding density on day 0. On day 2 or 3, after checking the health and confluency of cells, the media was aspirated and replaced with 1 mL media containing a predetermined concentration of compound and incubated for 2 hours. After 2 hours, the media was aspirated, and the cells washed 2 times with cold PBS. Cells were lysed on ice, with 50 uL 1×CST lysis buffer+1 mM PMSF for 5 minutes. After 5 minutes, cells were removed using a scraper and transferred to cold 1.5 mL tubes, and centrifuged for 10 min, 4° C., 14,000×g. Supernatant was gently removed and snap frozen in liquid nitrogen. Protein concentration of the lysate was determined using Bradford Reagent (analyzed using SpectraMax M2E) and diluted to 1 mg/mL or pERK or 1.5 mg/mL for pMEK analysis. […] All dilutions were in Milk-free antibody diluent.
# A549 pMEK:tMEK (CRAF) = test: CRAF-bypass pMEK:tMEK, A549; assay type: cell-based
# Method: Materials and Methods: A549 or A375 cells were seeded in 6-well plates at an appropriate seeding density on day 0. On day 2 or 3, after checking the health and confluency of cells, the media was aspirated and replaced with 1 mL media containing a predetermined concentration of compound and incubated for 2 hours. After 2 hours, the media was aspirated, and the cells washed 2 times with cold PBS. Cells were lysed on ice, with 50 uL 1×CST lysis buffer+1 mM PMSF for 5 minutes. After 5 minutes, cells were removed using a scraper and transferred to cold 1.5 mL tubes, and centrifuged for 10 min, 4° C., 14,000×g. Supernatant was gently removed and snap frozen in liquid nitrogen. Protein concentration of the lysate was determined using Bradford Reagent (analyzed using SpectraMax M2E) and diluted to 1 mg/mL or pERK or 1.5 mg/mL for pMEK analysis. Cell lysates were then analyzed for phosphor-ERK/total-ERK levels on a Jess system (ProteinSimple; Cat #JS3346) using the following antibodies: tERK1/2 (CST 4696; 1:50) and pERK1/2 (CST 4377; 1:50). […]
# A549 or […] cells were treated in duplicate for two hours with compounds at varying concentrations. […] After storage, the lysate was quantified with the Bradford assay. Before the lysates were prepared to run on the Jess, the lysates were diluted to 1 mg/mL for pERK analysis and 1.5 mg/mL pMEK analysis using quantitative Western blotting. […]
# [1] = Mouse liver microsome stability (t1/2, Clint); assay type: in vitro ADME; conditions: liver microsomes, pH 7.4, 0.5 mg/ml microsomal protein
# Method: (Eppendorf 5804R). […] The disappearance of the parent compound was determined.
# [2] = Human liver microsome stability (t1/2, Clint); assay type: in vitro ADME; conditions: microsomes, pH 7.4, 0.5 mg/ml microsomal protein
# [3] = Kinetic solubility (PBS pH 7.4; 4 hr); assay type: physicochemical; conditions: 10 mM PBS buffer, aqueous buffer, kinetic from dmso stock
# Method: The plates were shaken for 4 h at room temperature in an Eppendorf Thermomixer. After incubation, the plates were centrifuged for 20 minutes at 4680 rpm. From the supernatant, 150 uL was transferred to a new 96 well plate and 50 uL DMSO was added to ensure continued dissolution. Samples were measured on LC-UV at injection volumes of 1 and 8 uL. Peak areas were determined and compared to peak areas obtained using calibration curves of the test compounds in DMSO.
# [4] = eLogD (lipophilicity; pH 7.4); assay type: physicochemical
# Method: Test compounds were dissolved in DMSO at a concentration of 10 mM and further diluted with methanol: water 1:1. Samples were analyzed using gradient HPLC with three different isocratic mobile phases of 0.25% octanol in methanol (60, 65 and 70%) and 20 mM MOPS buffer (pH 7.4) with decylamine. If needed, (for low ElogDoct compounds) the isocratic mobile phases were adjusted to e.g. 40, 45 and 50% methanol. Peaks were detected using a diode array at absorbance 220-320 nm.
# Capacity factors data (k′ _=(tr−_t0)/t0) obtained at various amounts of methanol were extrapolated to 0% methanol and k′w values are determined using a linear procedure. ElogDoct (7.4) is calculated using a series of reference standards with known Log D values. Each experiment was performed in triplicate.
# PAMPA (pH 7.4) = conditions: PAMPA
# Method: Each stock solution was diluted to 50 uM in pH 7.4 Prisma HT buffer (pION) and 200 ul was added to each well of the donor plate in triplicate. The polyvinylidene fluoride (PVDF, 0.45 μm) filter membrane on the acceptor plate was coated with 5 ul gastrointestinal tract lipid formulation (GIT-0, pION) and to each well of the acceptor plate, 200 μl of acceptor sink buffer (pION) was added. The acceptor filter plate was then carefully placed on top of the donor plate to form a sandwich. The sandwich was incubated at 25° C. for 4 h without stirring. UV-vis spectra of the solutions in the blank, reference, acceptor and donor plates were measured using a microplate reader (Tecan Infinite 200PRO M Nano Plus). Permeability values were calculated using the PAMPA explorer software v. 3.8.0.2 (pION).
# [5] = Single dose PK profile (plasma and tumor) in Colon26 tumor bearing mice; assay type: in vivo; conditions: female, mouse
# Method: Female mice (either athymic BALC/c nude, or BALB/c mice) were inoculated with a single subcutaneous injection of 0.1 ml of mouse Colon-26 cell suspension (1×10^5 cells per animal) in the right flank region. Colon26 (C26) tumor bearing mice received a single dose (3-4 mice/treatment) of vehicle (10% DMSO/90% [20% SBE-B-CD in saline], pH 5) containing compounds at indicated dose by gavage (p.o.) or intravenous administration (i.v.) and at various time points (0.16, 0.5, 1, 2, 4, 8, 12, 16, 24-hour) post dose humanely euthanized. Blood was obtained through cardiac puncture into K+EDTA tubes, mixed by inversion and centrifuged to obtain the plasma. Tissues were excised, cleaned of surrounding tissues. All samples immediately snap frozen in liquid N2 prior to LC-MS/MS analysis (using Agilent Poroshell-120 EC-C18 (4.0 μm) 2.1×50 mm, and a Water+API-4000 Electrospray MS unit). The results of this study are illustrated in FIGS. 16, and 17. Tables 11 describes a single does PK profile (plasma) and Table 12 describes a single dose PK profile (tumor).
# CYP450 2D6 = CYP450 2D6 (Homo sapiens, UniProt P10635)
# Sequence of CYP450 2D6 (P10635 whole entry): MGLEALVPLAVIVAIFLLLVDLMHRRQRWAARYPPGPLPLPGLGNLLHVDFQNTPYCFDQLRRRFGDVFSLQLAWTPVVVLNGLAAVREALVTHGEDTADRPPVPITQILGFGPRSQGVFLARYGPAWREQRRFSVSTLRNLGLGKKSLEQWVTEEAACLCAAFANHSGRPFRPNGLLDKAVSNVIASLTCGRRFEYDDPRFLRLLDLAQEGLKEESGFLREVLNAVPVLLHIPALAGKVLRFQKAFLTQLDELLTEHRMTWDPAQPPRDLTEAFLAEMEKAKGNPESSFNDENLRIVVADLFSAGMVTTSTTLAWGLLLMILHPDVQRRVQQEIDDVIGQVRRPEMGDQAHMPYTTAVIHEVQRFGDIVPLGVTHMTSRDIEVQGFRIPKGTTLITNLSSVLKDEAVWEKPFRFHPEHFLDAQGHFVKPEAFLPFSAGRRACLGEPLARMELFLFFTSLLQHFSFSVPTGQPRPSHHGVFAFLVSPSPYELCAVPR
# [6] = Inv New Drugs (2018) 36, 1037-1043; cited from earlier work
# in vitro = conditions: human, Caco-2
# [7] = athymic BALB/c nude or BALB/c, iv, 25 mg/kg, plasma, 25 mpk i.v.
# [8] = athymic BALB/c nude or BALB/c, po, 25 mg/kg, plasma, 25 mpk p.o.
# [9] = athymic BALB/c nude or BALB/c, po, 100 mg/kg, plasma, 100 mpk p.o.
# [10] = iv, 25 mg/kg, plasma, 25 mpk i.v.
# [11] = iv, 25 mg/kg, tumor, 25 mpk i.v.
# [12] = po, 25 mg/kg, plasma, 25 mpk p.o.
# [13] = po, 25 mg/kg, tumor, 25 mpk p.o.
# [14] = po, 100 mg/kg, plasma, 100 mpk p.o.
# [15] = po, 100 mg/kg, tumor, 100 mpk p.o.
structure (smiles),measurement,setting,value
CNS(=O)(=O)Nc1cccc(Cc2c(CN3CCC3)c3ccc(OC(=O)N(C)C)cc3oc2=O)c1F [Compound 197],IC50,A549 (KRAS-G12S) pERK,4.3 nM
same,CRAF A549 pMEK:tMEK [100 nM; 2 hr],A549 pMEK:tMEK (CRAF),0.49
same,half-life at 1 uM,[1],53 min
same,microsomal CLint at 1 uM,[1],26 µL/min/mg
same,half-life at 1 uM,[2],38 min
same,solubility kinetic at 4 h,[3],> 80 µM
same,chromatographic logD,[4],2.9
same,"Papp at 4 h, 50 uM",PAMPA (pH 7.4),51 ×10⁻⁶ cm/s
same,Tmax,[5]; [7],9.6 min
same,half-life,[5]; [7],143 min
same,bioavailability,[5]; [8],47%
same,half-life,[5]; [8],73.8 min
same,bioavailability,[5]; [9],100%
same,half-life,[5]; [9],82.8 min
same,AUC(0-inf),[5]; [10],7740 ng·h/mL
same,AUC(0-t),[5]; [10],7730 ng·h/mL
same,Cmax,[5]; [10],10900 ng/mL
same,AUC(0-inf),[5]; [11],8360 ng·h/mL
same,AUC(0-t),[5]; [11],8320 ng·h/mL
same,Cmax,[5]; [11],6750 ng/mL
same,Tmax,[5]; [11],30 min
same,AUC(0-inf),[5]; [12],3650 ng·h/mL
same,AUC(0-t),[5]; [12],3640 ng·h/mL
same,Cmax,[5]; [12],2320 ng/mL
same,Tmax,[5]; [12],30 min
same,AUC(0-t),[5]; [13],3460 ng·h/mL
same,Cmax,[5]; [13],1920 ng/mL
same,Tmax,[5]; [13],60 min
same,bioavailability,[5]; [13],42%
same,AUC(0-inf),[5]; [14],31100 ng·h/mL
same,AUC(0-t),[5]; [14],31100 ng·h/mL
same,Cmax,[5]; [14],14200 ng/mL
same,Tmax,[5]; [14],9.6 min
same,AUC(0-inf),[5]; [15],37100 ng·h/mL
same,AUC(0-t),[5]; [15],36900 ng·h/mL
same,Cmax,[5]; [15],12600 ng/mL
same,Tmax,[5]; [15],60 min
same,bioavailability,[5]; [15],111%
C=C[C@H]1C[N@@]2CC[C@H]1C[C@@H]2[C@@H](O)c1ccnc2ccc(OC)cc12 [Quinidine],2D6*,CYP450 2D6,99.7
Cn1cnc2c(F)c(Nc3ccc(Br)cc3F)c(C(=O)NOCCO)cc21 [binimetinib],muscle gain in patients with BTC,[6],promote muscle gain
CC(=O)CC(c1ccccc1)c1c(O)c2ccccc2oc1=O (centres unmarked) [Warfarin],"Papp A→B at 2 h, 10 μM",in vitro,> 1 ×10⁻⁶ cm/s

# From patent US20250270180A1, “MEK INHIBITORS AND THERAPEUTIC USES THEREOF” (Immuneering Corporation, priority 2020, published 2025)
